Two compounds from patent US20220387602A1, “BIFUNCTIONAL DEGRADERS AND THEIR METHODS OF USE” (NOVARTIS AG, priority 2019, published 2022) can be followed below.

In one test the target is CRBN (Homo sapiens, UniProt Q96SW2). Kind of test: CRBN displacement assay Format 1 (fluorescence polarization, BodipyFL-lenalidomide probe Compound HH). The class given is binding. An outline of the steps: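 Fluorescence polarization competition: CRBN (nominal 100 nM final) pre-incubated 45 min at room temperature with compound, then BodipyFL-lenalidomide probe added (5 nM final; 0.9% DMSO).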
Sequence of CRBN (Q96SW2 whole entry): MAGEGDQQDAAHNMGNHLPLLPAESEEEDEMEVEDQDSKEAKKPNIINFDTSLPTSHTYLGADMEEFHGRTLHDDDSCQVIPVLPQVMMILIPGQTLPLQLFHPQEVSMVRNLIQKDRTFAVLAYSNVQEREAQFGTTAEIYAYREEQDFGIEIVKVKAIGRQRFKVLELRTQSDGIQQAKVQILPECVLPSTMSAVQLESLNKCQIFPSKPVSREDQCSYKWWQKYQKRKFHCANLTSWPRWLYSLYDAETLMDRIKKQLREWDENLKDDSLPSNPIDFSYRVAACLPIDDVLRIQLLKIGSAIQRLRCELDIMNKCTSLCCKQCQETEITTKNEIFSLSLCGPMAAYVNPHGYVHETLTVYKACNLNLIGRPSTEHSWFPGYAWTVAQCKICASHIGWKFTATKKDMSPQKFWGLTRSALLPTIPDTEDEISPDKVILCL

For a further test, the system named is HEK293 and TMD8 cells. Kind of test: Proteomics experiment (TMT quantification mass spectrometry of protein abundance). The format is cell-based. Conditions: 1 μM, 6 hours, FIG. 3E. The procedure:
HEK293 and TMD8 cells were treated with 1 μM dasatinib, 1 μM compound 06, 1 μM compound 07 or DMSO and protein abundance was analyzed using TMT quantification mass spectrometry. Significant changes were assessed by limma, log 2 fold changes are shown on the x-axis and p-values on the y-axis. Proteins with kinase annotations in UniProt are shown as squares and kinases with a log2 fold change≤−0.6 and a p-value≤0.01 are labeled with the corresponding gene name.
HEK293 and TMD8 cells were treated for 6 hours with DMSO (3 replicates), 1 μM dasatinib (2 replicates), 1 μM compound 06 (3 replicates) and 1 μM compound 07 (3 replicates), respectively. TMT11plex-labeled peptides were generated with the PreOmics iST-NHS kit according to the manufacturer's protocol (PreOmics, Germany). […] The 24 fractions were analyzed with a 25 cm×75 μm ID, 1.6 μm C18 Aurora Series emitter column (IonOpticks, Australia) on an EASY-nLC 1200 system coupled to an Orbitrap™ Fusion Lumos mass spectrometer (Thermo Fisher Scientific, USA). […] The Proteome Discoverer™ 2.1 software and the SEQUEST algorithm was used for protein identification and relative quantification. Log2 fold changes of protein abundances and p-values were calculated in Python and R with the limma package (Ritchie M E et al. Limma powers differential expression analyses for RNA-sequencing and microarray studies. Nucleic Acids Res. 2015, 43(7):e47).

Take `COc1ccc(C(=O)N2CCC3(CCN(C(=O)CCCCCCCN4CCN(c5cc(Nc6ncc(C(=O)Nc7c(C)cccc7Cl)s6)nc(C)n5)CC4)CC3)CC2)cc1N1CCC(=O)NC1=O` [compound 06, N-(2-chloro-6-methylphenyl)-2-((6-(4-(8-(9-(3-(2,4-dioxotetrahydropyrimidin-1(2H)-yl)-4-methoxybenzoyl)-3,9-diazaspiro[5.5]undecan-3-yl)-8-oxooctyl)piperazin-1-yl)-2-methylpyrimidin-4-yl)amino)thiazole-5-carboxamide]: at CRBN, the AC50 worked out at 162 nM. Moreover, the “degradation of bound kinase targets (proteomics)” value in the test with HEK293 and TMD8 cells is listed as “able to degrade several of the targets to which they bind”.

For `COc1ccc(C(=O)N2CCC3(CCN(C(=O)CN4CCN(c5cc(Nc6ncc(C(=O)Nc7c(C)cccc7Cl)s6)nc(C)n5)CC4)CC3)CC2)cc1N1CCC(=O)NC1=O` [compound 07, N-(2-chloro-6-methylphenyl)-2-((6-(4-(2-(9-(3-(2,4-dioxotetrahydropyrimidin-1(2H)-yl)-4-methoxybenzoyl)-3,9-diazaspiro[5.5]undecan-3-yl)-2-oxoethyl)piperazin-1-yl)-2-methylpyrimidin-4-yl)amino)thiazole-5-carboxamide], the AC50 at CRBN came out at 496 nM. For the same compound, in the test with HEK293 and TMD8 cells, the “degradation of bound kinase targets (proteomics)” value is “able to degrade several of the targets to which they bind”.

As usually defined, the AC50 is the midpoint of the concentration-response curve, whichever way the signal moves. The low end stands for activity at low concentration, the high end for activity only at high concentration.
